Like-named read-outs stand apart in the source and are kept apart here.
Tests used:
[1] = target: Cy5-labelled Mcl1 (amino acids 171-321) C286S protein (UniProtKB Q07820) (Homo sapiens (Human), UniProt Q07820, C286S); experiment: Inhibition of Mcl-1 by the fluorescence quenching assay (Example A, Method B); format: binding
In short: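 Eleven-point compound series incubated 2 h at room temperature with 1 nM Cy5-tagged protein and quencher-labelled PUMA peptide at 10, 20 or 400 nM in HEPES/NaCl/Tween 20, pH 7.4, 5% DMSO. IC50 for 50% fluorescence increase by 4-parameter fit, then Ki derived (complete cKi or estimated eKi).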

[2] = system: H929 multiple myeloma tumor line; experiment: In vitro cytotoxicity, MTT assay (Example B, Method A); format: cell-based; conditions: H929 cells, 48 hours exposure, read-out: C50
Method: The cytotoxicity studies were carried out on the H929 multiple myeloma tumor line.
The cells are distributed onto microplates and exposed to the test compounds for 48 hours. The cell viability is then quantified by a colorimetric assay, the Microculture Tetrazolium Assay (Carmichael et al, Cancer Res. 1987, 47, 939-942).
The results are expressed in C50 which means concentration corresponding to […] of effect/inhibition.

Sequence of Cy5-labelled Mcl1 (amino acids 171-321) C286S protein (Q07820 171-321 C286S): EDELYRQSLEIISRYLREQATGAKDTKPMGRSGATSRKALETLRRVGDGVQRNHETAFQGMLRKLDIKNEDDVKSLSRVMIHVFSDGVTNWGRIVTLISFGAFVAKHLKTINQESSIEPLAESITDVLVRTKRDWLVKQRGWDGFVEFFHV

Row | Compound | Ki [1] | IC50 ([2]; Homo sapiens, NCI-H929, 48 h) | IC50 [2]
1 | CC(=O)c1cc2c(cc1F)C=C(C[C@@H](C)COc1ccnc3c1[C@@H](C)CCC3)[C@]21CC[C@](Nc2cccc(Cl)c2)(C(=O)O)CC1 [Example 873, (1r,4R)-6′-acetyl-4-(3-chloroanilino)-5′-fluoro-2′-[(2R)-2-methyl-3-{[(5S)-5-methyl-5,6,7,8-tetrahydroquinolin-4-yl]oxy}propyl]spiro[cyclohexane-1,1′-indene]-4-carboxylic acid] | 4.17 nM | 341 nM | 
2 | CC(O)c1ccc2c(c1)[C@]1(CC[C@@](Nc3cccc(Cl)c3)(C(=O)O)CC1)[C@@H](C[C@@H](C)COc1ccnc3c1[C@H](C)CC[C@H]3F)C2 (single isomer, unassigned) [Example 864] | 0.374 nM |  | 183 nM
3 | CC1CCc2nccc(OC[C@H](C)CC3=Cc4ccccc4[C@]34CC[C@@](Nc3cccc(Cl)c3)(C(=O)O)CC4)c21 (single isomer, unassigned) [Example 630] | 1.17 nM |  | 340 nM
4 | Cc1ccc(N[C@]2(C(=O)O)CC[C@]3(CC2)c2ccccc2C[C@@H]3C[C@@H](C)COc2ccnc3c2[C@H](C)CCC3)cc1Cl [Example 709, (1r,2′S,4S)-4-(3-chloro-4-methylanilino)-2′-[(2R)-2-methyl-3-{[(5R)-5-methyl-5,6,7,8-tetrahydroquinolin-4-yl]oxy}propyl]-2′,3′-dihydrospiro[cyclohexane-1,1′-indene]-4-carboxylic acid] | 6.4 nM | 1010 nM | 
5 | C[C@@H](COc1ccnc2c1[C@H](C)CCC2)CC1Cc2c(F)cccc2[C@]12CC[C@@](Nc1cccc(Cl)c1)(C(=O)O)CC2 (single isomer, unassigned) [Example 743] | 0.463 nM |  | 110 nM
6 | C[C@@H]1CCCc2nccc(OCC(CC3Cc4ccccc4[C@]34CC[C@@](Nc3cccc(Cl)c3)(C(=O)O)CC4)C(F)F)c21 (single isomer, unassigned) [Example 518] | 1260 nM |  | 12000 nM
7 | C[C@@H](COc1ccnc2c1[C@@H](C(F)(F)F)CCC2)C[C@H]1Cc2ccccc2[C@]12CC[C@@](Nc1cccc(Cl)c1)(C(=O)O)CC2 [Example 698, (1r,2′S,4S)-4-(3-chloroanilino)-2′-[(2R)-2-methyl-3-{[(5S)-5-(trifluoromethyl)-5,6,7,8-tetrahydroquinolin-4-yl]oxy}propyl]-2′,3′-dihydrospiro[cyclohexane-1,1′-indene]-4-carboxylic acid] | 65.6 nM | 5430 nM | 
8 | C[C@@H](COc1ccnc2c1[C@H](C)CC[C@H]2F)C[C@H]1Cc2ccccc2[C@]12CC[C@@](Nc1cccc(Cl)c1)(C(=O)O)CC2 [Example 689, (1r,2′S,4S)-4-(3-chloroanilino)-2′-[(2R)-3-{[(5R,8R)-8-fluoro-5-methyl-5,6,7,8-tetrahydroquinolin-4-yl]oxy}-2-methylpropyl]-2′,3′-dihydrospiro[cyclohexane-1,1′-indene]-4-carboxylic acid] | 1.46 nM | 117 nM | 

Now those with a lower Ki [1], led by results:

Row | Ki [1] | Compound | IC50 ([2]; Homo sapiens, NCI-H929, 48 h) | IC50 [2]
9 | 0.349 nM | CC(O)c1ccc2c(c1)[C@]1(CC[C@@](Nc3cccc(Cl)c3)(C(=O)O)CC1)[C@@H](C[C@@H](C)COc1ccnc3ccsc13)C2 (stereo partly drawn) [Example 722, (1r,2′S,4S)-4-(3-chloroanilino)-6′-(1-hydroxyethyl)-2′-{(2R)-2-methyl-3-[(thieno[3,2-b]pyridin-7-yl)oxy]propyl}-2′,3′-dihydrospiro[cyclohexane-1,1′-indene]-4-carboxylic acid] | 244 nM | 
10 | 0.321 nM | C[C@@H](COc1ccnc2c1[C@H](C)CCC2)CC1Cc2c(F)c(Cl)ccc2[C@]12CC[C@@](Nc1cccc(Cl)c1)(C(=O)O)CC2 (single isomer, unassigned) [Example 749] |  | 72.4 nM
11 | 0.198 nM | Cc1cc(C(C)O)cc2c1C=C(C[C@@H](C)COc1ccnc3c1[C@H](C)CCC3)[C@]21CC[C@](Nc2cccc(Cl)c2)(C(=O)O)CC1 (single isomer, unassigned) [Example 760] |  | 81.7 nM

Reference: patent US20240150293A1, “SPIROCYCLOHEXANE DERIVATIVES, PHARMACEUTICAL COMPOSITIONS CONTAINING THEM AND THEIR USES AS ANTI-APOPTOTIC INHIBITORS” (LES LABORATOIRES SERVIER, priority 2021, published 2024)
